Experiment: xn = mol fraction of the nth substance listed
Conditions: for speed of sound: 100 kPa, Sing-around technique in a fixed-path interferometer; for speed of sound / viscosity / mass density: Liquid; for viscosity / mass density: 101 kPa; for viscosity: Falling or rolling sphere viscometry; for mass density: Vibrating tube method; for surface tension liquid-gas: 294.4 K, Pendant drop shape

CCCCCCCCCCCCCCCC [hexadecane] + CCc1ccccc1
Conditions	mass density [kg/m3]	speed of sound [m/s]	viscosity [mPa·s]
293.15 K, x2 = 0	773.49	1357.3	3.44
293.15 K, x2 = 0.1007	777.15	1353.4	3.01
293.15 K, x2 = 0.2	781.37	1349.4	2.63
293.15 K, x2 = 0.3002	786.28	1345.2	2.28
293.15 K, x2 = 0.4013	792.08	1340.7	1.96
293.15 K, x2 = 0.5002	798.81	1336.7	1.69
293.15 K, x2 = 0.6001	806.86	1333.1	1.43
293.15 K, x2 = 0.7002	816.95	1330.4	1.21
293.15 K, x2 = 0.8001	829.46	1329.3	1.01
293.15 K, x2 = 0.9	845.47	1331.5	0.83
303.15 K, x2 = 0	766.55	1320	2.72
303.15 K, x2 = 0.1007	770.16	1316	2.42
303.15 K, x2 = 0.2	774.31	1312	2.14
303.15 K, x2 = 0.3002	779.13	1307.8	1.88
303.15 K, x2 = 0.4013	784.83	1303.1	1.64
303.15 K, x2 = 0.5002	791.42	1298.9	1.42
303.15 K, x2 = 0.6001	799.32	1295	1.23
303.15 K, x2 = 0.7002	809.21	1291.9	1.05
303.15 K, x2 = 0.8001	821.46	1291.1	0.88
303.15 K, x2 = 0.9	837.13	1291.3	0.73
313.15 K, x2 = 0	759.63	1283.3	–
313.15 K, x2 = 0.1007	763.17	1279.2	–
313.15 K, x2 = 0.2	767.24	1275.1	–
313.15 K, x2 = 0.3002	771.97	1270.8	–
313.15 K, x2 = 0.4013	777.56	1266	–
313.15 K, x2 = 0.5002	784.01	1261.6	–
313.15 K, x2 = 0.6001	791.75	1257.4	–
313.15 K, x2 = 0.7002	801.42	1253.8	–
313.15 K, x2 = 0.8001	813.41	1251.3	–
313.15 K, x2 = 0.9	828.73	1251.6	–
323.15 K, x2 = 0	752.71	1247.3	1.82
323.15 K, x2 = 0.1007	756.18	1243.2	1.65
323.15 K, x2 = 0.2	760.17	1239	1.49
323.15 K, x2 = 0.3002	764.8	1234.5	1.34
323.15 K, x2 = 0.4013	770.27	1229.4	1.19
323.15 K, x2 = 0.5002	776.58	1224.8	1.05
323.15 K, x2 = 0.6001	784.14	1220.3	0.92
323.15 K, x2 = 0.7002	793.6	1216.2	0.8
323.15 K, x2 = 0.8001	805.42	1213.1	0.68
323.15 K, x2 = 0.9	820.29	1212.5	0.57
333.15 K, x2 = 0	745.79	1212	1.53
333.15 K, x2 = 0.1007	749.19	1207.7	1.4
333.15 K, x2 = 0.2	753.09	1203.4	1.28
333.15 K, x2 = 0.3002	757.62	1198.8	1.15
333.15 K, x2 = 0.4013	762.96	1193.6	1.03
333.15 K, x2 = 0.5002	769.13	1188.6	0.92
333.15 K, x2 = 0.6001	776.51	1183.8	0.81
333.15 K, x2 = 0.7002	785.74	1179.2	0.7
333.15 K, x2 = 0.8001	797.18	1175.5	0.6
333.15 K, x2 = 0.9	811.8	1173.9	0.52
343.15 K, x2 = 0	738.9	–	1.31
343.15 K, x2 = 0.1007	742.2	–	1.21
343.15 K, x2 = 0.2	746	–	1.1
343.15 K, x2 = 0.3002	750.4	–	1.01
343.15 K, x2 = 0.4013	755.6	–	0.9
343.15 K, x2 = 0.5002	761.6	–	0.81
343.15 K, x2 = 0.6001	768.9	–	0.71
343.15 K, x2 = 0.7002	777.9	–	0.62
343.15 K, x2 = 0.8001	789	–	0.54
343.15 K, x2 = 0.9	803.3	–	0.47
353.15 K, x2 = 0	731.8	–	1.13
353.15 K, x2 = 0.1007	735	–	1.05
353.15 K, x2 = 0.2	738.7	–	0.96
353.15 K, x2 = 0.3002	743	–	0.88
353.15 K, x2 = 0.4013	748.1	–	0.8
353.15 K, x2 = 0.5002	754	–	0.71
353.15 K, x2 = 0.6001	761.1	–	0.64
353.15 K, x2 = 0.7002	769.8	–	0.56
353.15 K, x2 = 0.8001	780.7	–	0.49
353.15 K, x2 = 0.9	794.5	–	0.43
363.15 K, x2 = 0	724.7	–	0.99
363.15 K, x2 = 0.1007	727.8	–	0.92
363.15 K, x2 = 0.2	731.5	–	0.85
363.15 K, x2 = 0.3002	735.6	–	0.78
363.15 K, x2 = 0.4013	740.6	–	0.7
363.15 K, x2 = 0.5002	746.3	–	0.63
363.15 K, x2 = 0.6001	753.1	–	0.58
363.15 K, x2 = 0.7002	761.6	–	0.51
363.15 K, x2 = 0.8001	772.2	–	0.45
363.15 K, x2 = 0.9	785.6	–	0.39
373.15 K, x2 = 0	717.5	–	0.87
373.15 K, x2 = 0.1007	720.6	–	0.82
373.15 K, x2 = 0.2	724.1	–	0.76
373.15 K, x2 = 0.3002	728.1	–	0.69
373.15 K, x2 = 0.4013	732.9	–	0.63
373.15 K, x2 = 0.5002	738.4	–	0.57
373.15 K, x2 = 0.6001	745.1	–	0.52
373.15 K, x2 = 0.7002	753.3	–	0.47
373.15 K, x2 = 0.8001	763.6	–	0.41
373.15 K, x2 = 0.9	776.6	–	0.36

Conditions	surface tension liquid-gas [mN/m]
x2 = 0	27.3
x2 = 0.2	27.4
x2 = 0.4013	27.5
x2 = 0.5002	27.5
x2 = 0.6001	27.8
x2 = 0.7002	28
x2 = 0.8001	28.2
x2 = 0.9	28.5
